# T1: ApNTD (Aeropyrum pernix, UniProt Q9YFY3)
# T1 construct: gene thrS2; N-terminal editing domain, residues 1-136 of ThrRS-2, untagged, expressed in E. coli, homodimer
# T1 sequence (Q9YFY3 1-136): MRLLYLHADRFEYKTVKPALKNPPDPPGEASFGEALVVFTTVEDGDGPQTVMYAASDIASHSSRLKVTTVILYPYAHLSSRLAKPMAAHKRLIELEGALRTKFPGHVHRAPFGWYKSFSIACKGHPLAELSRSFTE
# B1: N-terminal editing domain (NTD) of threonyl-tRNA synthetase from Methanococcus jannaschii (domain or fragment, UniProt Q58597 5-143, looked up)
# chain: LIHSDYLEFEAKEKTKIAEETENLKGKLDECLACFIAVEREDENNPEGTAIGAVEEIEKVANQLKVNNIVVYPYAHLSSDLSSPETAVKVLKDIESILKERGYNVLRAPFGWYKAFKISCKGHPLSELSRKIVAKEEKK
# notes: N-terminal editing domain of ThrRS of Methanococcus jannaschii, residues 5-143; untagged construct (stop codon in the reverse primer); Crystallised with the substrate analogues L-Ser3AA or L-Thr3AA; also called MjNTD; MjNTD wild type
# How the values were obtained:
# ApNTD [1] = biological target: T2, ApNTD (Aeropyrum pernix, UniProt Q9YFY3, K116M); experiment: X-ray crystal structure; assay type: binding; details: editing (amino-acid/adenosine) pocket
# T2 construct: gene thrS2; N-terminal editing domain, residues 1-136 of ThrRS-2, untagged, expressed in E. coli, homodimer
# PabNTD = biological target: T3, PabNTD (Pyrococcus abyssi, UniProt Q9UZ14, K121M); experiment: X-ray crystal structure; assay type: binding; details: editing (amino-acid/adenosine) pocket
# T3 construct: gene thrS; N-terminal editing domain, residues 1-143 of ThrRS, untagged, expressed in E. coli, homodimer; all rows are K121M
# ApNTD [2] = biological target: T4, ApNTD (Aeropyrum pernix, UniProt Q9YFY3, E129A); experiment: X-ray crystal structure; assay type: binding; details: editing (amino-acid/adenosine) pocket
# T4 construct: gene thrS2; N-terminal editing domain, residues 1-136 of ThrRS-2, untagged, expressed in E. coli, homodimer
# ApNTD [3] = biological target: T5, ApNTD (Aeropyrum pernix, UniProt Q9YFY3, Y115A); experiment: X-ray crystal structure; assay type: binding; details: editing (amino-acid/adenosine) pocket
# T5 construct: gene thrS2; N-terminal editing domain, residues 1-136 of ThrRS-2, untagged, expressed in E. coli, homodimer
# ApNTD [4] = biological target: T1, ApNTD; experiment: ITC (also crystal structure); assay type: binding
# [5] = biological target: N-terminal editing domain (NTD) of threonyl-tRNA synthetase from Aeropyrum pernix (Aeropyrum pernix); experiment: crystal structure; co-crystals with the substrate analogues L-Ser3AA or L-Thr3AA, grown at 4 °C; ApNTD in P4(1)2(1)2 with one monomer in the asymmetric unit (dimer by the crystallographic twofold); MjNTD in C2 and P2(1) with six and four monomers in the asymmetric unit
# [6] = biological target: the molecule itself; experiment: as above
# T3 sequence (Q9UZ14 1-143 K121M): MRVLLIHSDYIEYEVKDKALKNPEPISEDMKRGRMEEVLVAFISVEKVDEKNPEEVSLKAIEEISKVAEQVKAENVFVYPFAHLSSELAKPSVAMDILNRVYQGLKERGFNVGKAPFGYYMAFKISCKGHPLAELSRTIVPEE
# T2 sequence (Q9YFY3 1-136 K116M): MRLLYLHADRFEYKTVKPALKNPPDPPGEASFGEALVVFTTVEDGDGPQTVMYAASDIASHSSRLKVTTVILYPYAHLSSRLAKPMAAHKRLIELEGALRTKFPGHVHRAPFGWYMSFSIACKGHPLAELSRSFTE
# T5 sequence (Q9YFY3 1-136 Y115A): as the sequence (Q9YFY3 1-136 K116M) above, with Y115A, M116K counted along it
# T4 sequence (Q9YFY3 1-136 E129A): as the sequence (Q9YFY3 1-136 K116M) above, with M116K, E129A counted along it
molecule,measurement,setting,value
C[C@@H](O)[C@H](N)C(=O)N[C@H]1[C@@H](O)[C@H](n2cnc3c(N)ncnc32)O[C@@H]1CO [L-threonyl-3′-aminoadenosine],X-ray crystal structure,ApNTD [1],K116M mutant of ApNTD with L-Ser3AA and L-Thr3AA
same,X-ray crystal structure,PabNTD,We solved the crystal structure of K121M mutant of PabNTD
same,X-ray crystal structure,ApNTD [2],E129A mutant also showed a loosening of interactions upon L-Thr3AA binding
same,X-ray crystal structure,ApNTD [3],no such loosening was observed in the case of Y115A
same,Kd,ApNTD [4],13.4 ± 2.9 µM
Nc1ncnc2c1ncn2[C@@H]1O[C@H](CO)[C@@H](NC(=O)[C@@H](N)CO)[C@H]1O [L-seryl-3′-aminoadenosine],X-ray crystal structure,PabNTD,We solved the crystal structure of K121M mutant of PabNTD
same,Kd,ApNTD [4],1 ± 0.3 µM
N-terminal editing domain (NTD) of threonyl-tRNA synthetase from Aeropyrum pernix (domain or fragment),stoichiometry N,[5],2
B1,stoichiometry N,[6],2

# — article PMC4491819, “Specificity and catalysis hardwired at the RNA–protein interface in a translational proofreading enzyme” (Nature Communications, 2015)
